# Data taken from US20110130326A1, “DEFENSINS FOR TREATMENT OF INFECTIVE ENDOCARDITIS” (Novozymes A/S, priority 2009, published 2011).
# Where two headings read alike, the source gives them in different places. Marks after values point to notes of the source that are not given here.
# Legend:
# MRSA ATCC33591 [1] = assay: MIC by broth microdilution assay according to CLSI; type: cell-based, Staphylococcus aureus
# Protocol: The MICs of endocardisin, vancomycin and daptomycin were determined by a broth microdilution assay according to Clinical Laboratory Standards Institute (CLSI). MIC is defined as the lowest drug concentration completely inhibiting organisms growth.
# MRSA ATCC33591 [2] = assay: Experimental rabbit infective endocarditis model, Example 2 (dose response); type: in vivo, Staphylococcus aureus; conditions: for Staphylococcus aureus densities, Kidneys / Staphylococcus aureus densities, Spleen / Staphylococcus aureus densities, Vegetations: rabbit, 3 days, 24 h after last dose
# Protocol: Rabbit IE was induced following transcarotid-transaortic valve indwelling catheterization. At 24 hrs after iv infection with 10^6 cfu MRSA ATCC33591 (ID95 inoculum), animals received either:
# i) no therapy (control); ii) endocardisin at 5, 10 or 20 mg/kg, iv, bid; iii) vancomycin at 15 mg/kg, iv, bid; or iv) daptomycin at 12 mg/kg, iv, once-daily;
# All regimens were for 3 days. At 24 hours after the last antibiotic dose, target tissues were removed and quantitatively cultured.
# MRSA ATCC33591 [3] = assay: Experimental rabbit aortic infective endocarditis model, Example 1 (end of treatment and relapse); type: in vivo, Staphylococcus aureus; conditions: for Staphylococcus aureus densities, Kidneys / Staphylococcus aureus densities, Spleen / Staphylococcus aureus densities, Vegetations / Staphylococcus aureus densities, Kidneys (Relapse) / Staphylococcus aureus densities, Spleen (Relapse) / Staphylococcus aureus densities, Vegetations (Relapse): rabbit, iv, 3 days; for Staphylococcus aureus densities, Kidneys / Staphylococcus aureus densities, Spleen / Staphylococcus aureus densities, Vegetations: 24 h after last dose, mean ± SD; for Staphylococcus aureus densities, Kidneys (Relapse) / Staphylococcus aureus densities, Spleen (Relapse) / Staphylococcus aureus densities, Vegetations (Relapse): then drug-free for an extra 3 days
# Protocol: Experimental aortic infective endocarditis model was induced in New Zealand White rabbits with a methicillin-resistant Staphylococcus aureus (MRSA), strain ATCC33591, following trans-carotid-transaortic valve indwelling catheterization.
# After aortic catheterization and 24 hr post-infection, animals were randomized to receive either:
# i) no therapy (control); ii) endocardisin at 40 mg/kg, iv, twice daily; iii) vancomycin at 15 mg/kg, iv, twice daily; or iv) daptomycin at 12 mg/kg, iv, once daily (the latter two dose-strategies to mimic human-like PK).
# Treatments lasted for 3 days. At 24 hours after the last antibiotic dose, half the animals were sacrificed with a lethal dose of sodium pentobarbital to test the treatment efficacies. The remaining animals resided drug-free for an extra 3 days for relapse studies. At sacrifice, vegetations, kidneys and spleen were removed and quantitatively cultured. […] Culture results were expressed as mean log10 CFU per gram of tissue (±SD).
compound,measurement,setting,value
CCCCCCCCCC(=O)N[C@@H](Cc1c[nH]c2ccccc12)C(=O)N[C@H](CC(N)=O)C(=O)N[C@@H](CC(=O)O)C(=O)N[C@@H]1C(=O)NCC(=O)N[C@@H](CCCN)C(=O)N[C@@H](CC(=O)O)C(=O)N[C@H](C)C(=O)N[C@@H](CC(=O)O)C(=O)NCC(=O)N[C@H](CO)C(=O)N[C@@H]([C@H](C)CC(=O)O)C(=O)N[C@@H](CC(=O)c2ccccc2N)C(=O)O[C@@H]1C [daptomycin],MIC,"MRSA ATCC33591 [1]; Staphylococcus aureus, study strain MRSA ATCC33591, lowest drug concentration completely inhibiting growth, read-out: MIC",0.125 µg/mL
same,"Staphylococcus aureus densities, Kidneys","MRSA ATCC33591 [2]; 12 mg/kg, iv, once-daily",0.76 +/− 0.53 log10 CFU/g tissue
same,"Staphylococcus aureus densities, Spleen","MRSA ATCC33591 [2]; 12 mg/kg, iv, once-daily",0.91 +/− 0.53 log10 CFU/g tissue
same,"Staphylococcus aureus densities, Vegetations","MRSA ATCC33591 [2]; 12 mg/kg, iv, once-daily",1.90 +/− 0.82 log10 CFU/g tissue
same,"Staphylococcus aureus densities, Kidneys","MRSA ATCC33591 [3]; 12 mg/kg, once-daily",0.76 +/− 0.52* log10 CFU/g tissue
same,"Staphylococcus aureus densities, Spleen","MRSA ATCC33591 [3]; 12 mg/kg, once-daily",0.91 +/− 0.53* log10 CFU/g tissue
same,"Staphylococcus aureus densities, Vegetations","MRSA ATCC33591 [3]; 12 mg/kg, once-daily",1.90 +/− 0.82* log10 CFU/g tissue
same,"Staphylococcus aureus densities, Kidneys (Relapse)","MRSA ATCC33591 [3]; 12 mg/kg, once-daily",1.68 +/− 2.24** log10 CFU/g tissue
same,"Staphylococcus aureus densities, Spleen (Relapse)","MRSA ATCC33591 [3]; 12 mg/kg, once-daily",1.30 +/− 1.48** log10 CFU/g tissue
same,"Staphylococcus aureus densities, Vegetations (Relapse)","MRSA ATCC33591 [3]; 12 mg/kg, once-daily",2.46 +/− 2.36** log10 CFU/g tissue
CN[C@H](CC(C)C)C(=O)N[C@H]1C(=O)N[C@@H](CC(N)=O)C(=O)N[C@H]2C(=O)N[C@H]3C(=O)N[C@H](C(=O)N[C@H](C(=O)O)c4cc(O)cc(O)c4-c4cc3ccc4O)[C@H](O)c3ccc(c(Cl)c3)Oc3cc2cc(c3O[C@@H]2O[C@H](CO)[C@@H](O)[C@H](O)[C@H]2O[C@H]2C[C@](C)(N)[C@H](O)[C@H](C)O2)Oc2ccc(cc2Cl)[C@H]1O [vancomycin],MIC,MRSA ATCC33591 [1]; Staphylococcus aureus,2 µg/mL
same,"Staphylococcus aureus densities, Kidneys","MRSA ATCC33591 [2]; 15 mg/kg, iv, twice-daily",3.07 +/− 0.53 log10 CFU/g tissue
same,"Staphylococcus aureus densities, Spleen","MRSA ATCC33591 [2]; 15 mg/kg, iv, twice-daily",3.02 +/− 0.51 log10 CFU/g tissue
same,"Staphylococcus aureus densities, Vegetations","MRSA ATCC33591 [2]; 15 mg/kg, iv, twice-daily",5.60 +/− 1.47 log10 CFU/g tissue
same,"Staphylococcus aureus densities, Kidneys","MRSA ATCC33591 [3]; 15 mg/kg, twice-daily",3.07 +/− 0.53 log10 CFU/g tissue
same,"Staphylococcus aureus densities, Spleen","MRSA ATCC33591 [3]; 15 mg/kg, twice-daily",3.02 +/− 0.51 log10 CFU/g tissue
same,"Staphylococcus aureus densities, Vegetations","MRSA ATCC33591 [3]; 15 mg/kg, twice-daily",5.60 +/− 1.47 log10 CFU/g tissue
same,"Staphylococcus aureus densities, Kidneys (Relapse)","MRSA ATCC33591 [3]; 15 mg/kg, twice-daily",4.69 +/− 1.63 log10 CFU/g tissue
same,"Staphylococcus aureus densities, Spleen (Relapse)","MRSA ATCC33591 [3]; 15 mg/kg, twice-daily",3.98 +/− 1.27 log10 CFU/g tissue
same,"Staphylococcus aureus densities, Vegetations (Relapse)","MRSA ATCC33591 [3]; 15 mg/kg, twice-daily",6.36 +/− 1.57 log10 CFU/g tissue
endocardisin: synthetic defensin; a polypeptide having the amino acid sequence shown in SEQ ID NO: 1 (GFGCNGPWNEDDLRCHNHCKSIKGYKGGYCAKGGFVCKCY),MIC,"MRSA ATCC33591 [1]; study strain MRSA ATCC33591, lowest drug concentration completely inhibiting growth",0.5 micrograms/ml
same,dose dependence of therapeutic efficacy in all target tissues,"MRSA ATCC33591 [2]; 5, 10 or 20 mg/kg, iv, bid",dose-dependent therapeutic efficacy
same,reduction of MRSA densities in all target tissues vs. vancomycin therapy,MRSA ATCC33591 [2]; endocardisin at 20 mg/kg,significantly greater efficacy
same,"Staphylococcus aureus densities, Kidneys","MRSA ATCC33591 [2]; 5 mg/kg, iv, twice-daily",4.33 +/− 1.27 log10 CFU/g tissue
same,"Staphylococcus aureus densities, Spleen","MRSA ATCC33591 [2]; 5 mg/kg, iv, twice-daily",4.61 +/− 1.11 log10 CFU/g tissue
same,"Staphylococcus aureus densities, Vegetations","MRSA ATCC33591 [2]; 5 mg/kg, iv, twice-daily",6.44 +/− 1.70 log10 CFU/g tissue
same,"Staphylococcus aureus densities, Kidneys","MRSA ATCC33591 [2]; 10 mg/kg, iv, twice-daily",3.19 +/− 1.06 log10 CFU/g tissue
same,"Staphylococcus aureus densities, Spleen","MRSA ATCC33591 [2]; 10 mg/kg, iv, twice-daily",2.62 +/− 0.60 log10 CFU/g tissue
same,"Staphylococcus aureus densities, Vegetations","MRSA ATCC33591 [2]; 10 mg/kg, iv, twice-daily",4.74 +/− 1.84 log10 CFU/g tissue
same,"Staphylococcus aureus densities, Kidneys","MRSA ATCC33591 [2]; 20 mg/kg, iv, twice-daily",0.61 +/− 0.21 log10 CFU/g tissue
same,"Staphylococcus aureus densities, Spleen","MRSA ATCC33591 [2]; 20 mg/kg, iv, twice-daily",0.61 +/− 0.12 log10 CFU/g tissue
same,"Staphylococcus aureus densities, Vegetations","MRSA ATCC33591 [2]; 20 mg/kg, iv, twice-daily",1.57 +/− 0.75 log10 CFU/g tissue
same,preventing relapse,MRSA ATCC33591 [3]; 3 days drug-free after 3 days treatment,most effective in preventing relapse
same,reduction of MRSA densities in all target tissues as compared with vancomycin therapy,"MRSA ATCC33591 [3]; endocardisin 40 mg/kg iv twice daily, P<0.001",significantly greater efficacy
same,"Staphylococcus aureus densities, Kidneys","MRSA ATCC33591 [3]; 40 mg/kg, twice-daily",1.18 +/− 0.75* log10 CFU/g tissue
same,"Staphylococcus aureus densities, Spleen","MRSA ATCC33591 [3]; 40 mg/kg, twice-daily",1.02 +/− 0.65* log10 CFU/g tissue
same,"Staphylococcus aureus densities, Vegetations","MRSA ATCC33591 [3]; 40 mg/kg, twice-daily",2.41 +/− 1.50* log10 CFU/g tissue
same,"Staphylococcus aureus densities, Kidneys (Relapse)","MRSA ATCC33591 [3]; 40 mg/kg, twice-daily",0.75 +/− 0.79* log10 CFU/g tissue
same,"Staphylococcus aureus densities, Spleen (Relapse)","MRSA ATCC33591 [3]; 40 mg/kg, twice-daily",1.17 +/− 0.70* log10 CFU/g tissue
same,"Staphylococcus aureus densities, Vegetations (Relapse)","MRSA ATCC33591 [3]; 40 mg/kg, twice-daily",1.45 +/− 0.64* log10 CFU/g tissue
